The nature of data set [1]: Plasma protein binding assay. The data set is classed as in vitro ADME.
The test system of another data set is C57BL/6J mice. Briefly: Insulin tolerance test, glucagon challenge and amylin challenge. In kind it is in vivo, mouse. On the procedure: Wild-type lean C57BL/6J and diet-induced obese (DIO) C57BL/6J age-matched male mice were purchased from Jackson Laboratories, and used at ages 14-16, and 24-26 weeks respectively (>20 weeks of high-fat diet for the DIO mice). GCGR^/ mice were bred from heterozygous mice and used between 11 and 17 weeks. […] Blood glucose was measured from tail nicks using AccuCheck (Aviva) meters.
Insulin Tolerance Test (ITT), Glucagon Challenge (GC) and Amylin Challenge (AC). For hormone challenges animals were fasted individually housed as described above. For ITT the fasting period was 6 h (7 am to 1 pm), and for glucagon and amylin challenges the fasting period was 14 h (8 pm-10 am). Inhibitor or vehicle alone was injected i.p. as previously described, 30 min prior to each hormone challenge. […] Glucagon (Eli Lilly) was injected s.c. 100 μg/kg formulated in 0.5% BSA sterile saline (5 mL/kg). Amylin (Bachem) was injected s.c. 250 μg/kg formulated in sterile saline (5 mL/kg). Blood glucose was measured at timepoints −45, 0, 15, 30, 45, 60 and 75 min with reference to the time of hormone injection, by microsampling from a tail nick as described above. Values are reported as mean±S.E.M. Statistics were performed using a two-tail Student's t-test, and significance levels shown in the figures are *p<0.05 versus vehicle control group or **p<0.01 versus vehicle control group.
(§1) Blood collection and plasma hormone measurements. Blood was collected in EDTA-coated tubes (BD Microtainer®) from trunk bleeding (˜500 μL) after CO2-euthanasia for all hormone assays. The plasma was immediately separated from red blood cells by centrifugation 10 min at 1800 g, aliquoted, frozen over dry ice and stored at −80° C. […] Values are reported as mean±S.E.M. Statistics were performed using a two-tail Student's t-test, and significance levels shown in the figures are *p<0.05 versus vehicle control group or **p<0.01 versus vehicle control group.

For another data set, the system named is lean mice. Description: Basal blood glucose and hormone levels without nutrient challenge. In kind it is in vivo, mouse. Particulars: 80 mg/kg, no glucose challenge, vs controls. The procedure: Glucose tolerance tests GTT and blood glucose measurements. Prior to a glucose challenge, the animals were fasted for 14 h (8 pm to 10 am, during the dark cycle) while individually housed in a clean cage with inedible wood-chip as a floor substrate, cotton bedding and a red plastic hut. Inhibitor, vehicle or control compounds were administered by a single intraperitoneal (i.p.) injection 30 min prior to the glucose challenge. Dextrose was formulated in sterile saline (3 g in 10 mL total), and the dose was adjusted by fasted body weight. For oGTT, 3.0 g/kg dextrose was administered by gavage at a dose of 10 mL/kg, and for ipGTT, 1.5 g/kg dextrose injected at a dose of 5 mL/kg. Blood glucose was measured using AccuCheck® meters (Aviva) from blood droplets obtained from a small nick at the tip of the tail, at timepoints −45, 0, 15, 30, 45, 60, 90 and 120 min with reference to the time of glucose injection. The area of the blood glucose response profile curve corresponding to each animal was calculated by the trapezoid method^17, using as reference each individual baseline blood glucose measurement prior to glucose administration (t=0). […] Values are reported as mean±S.E.M. Statistics were performed using a two-tail Student's t-test, and significance levels shown in the figures are *p<0.05 versus vehicle control group or **p<0.01 versus vehicle control group. […]

The subject of another data set is DIO mice. Briefly: Plasma hormone measurements and liver RT-PCR post-IPGTT. The data set is classed as in vivo, mouse. On the procedure:
Trunk blood was obtained for plasma hormone measurements using the Multiplexed Mouse Metabolic Hormone panel (Milliplex, EMD Millipore) on a Luminex FlexMap 3D instrument. Gastric emptying was measured by dissection of stomachs 30 min after an oral glucose bolus (3.0 g/kg, 10 mL/kg) in sterile saline containing 0.1 mg/mL phenol red.
Total RNA was isolated from liver samples (˜100 mg) using TRIzol (Invitrogen) and purified using an RNeasy® kit (Qiagen) and on-column DNAse treatment (Qiagen). Reverse transcription was performed with oligo(dT) primers using SuperScript III (Life Technologies). RT-PCR was performed with two primer pairs per target normalized against tubulin and beta-actin transcripts (ΔΔCT method).
as §1
RT-PCR analysis of liver gluconeogenesis markers phosphoenolpyruvate carboxykinase (PEPCK) and glucose-6-phosphatase (G6Pase). Total RNA was isolated from liver samples (˜100 mg) using TRIzol® reagent (Invitrogen, 1 mL/100 mg sample), followed by spin-column purification (RNeasy® kit, Qiagen) and on-column DNAse treatment (Qiagen) according to the manufacturer's instructions. RNA concentrations were determined by UV spectrophotometry (NanoDrop). One microgram of total RNA was used for reverse transcription with oligo(dT) primers (SuperScript® III First-Strand Synthesis SuperMix, Life Technologies) according to the manufacturer's instructions. Quantitative PCR reactions included 1 μL of cDNA diluted 1:100, 0.4 μM primers, 2× SYBR Green PCR Master Mix (Invitrogen) in 25 μL total volume, and were read out by a CFX96TM Real-Time PCR Detection System (BioRad). Transcript levels were determined using two known primer pairs^18,19 for each gene of interest (Table 6), which were normalized against tubulin and beta-actin transcripts (ΔΔCT method), and expressed relative to the lowest sample. Duplicate control assays without reverse transcriptase treatment were run for each RNA preparation and primer set used. Statistics were performed using a two-tail Student's t-test, and significance levels shown in the figures are *p<0.05 versus vehicle control group or **p<0.01 versus vehicle control group.

The subject of the next data set is C57BL/6J lean mice. Briefly: CGRP-induced blood glucose excursions. In kind it is in vivo, mouse. As to conditions: 80 mg/kg 30 min before CGRP. On the procedure:
Supraphysiological doses of CGRP induce blood glucose fluctuations via amylin receptors. […] Blood glucose was monitored at various points throughout the experiment, beginning at 45 minutes before and ending at 110 minutes after CGRP administration. The data was plotted (left panel) and the area under the curve for the 6bK-administered mice and the control mice was integrated.

[2] abbreviates: DIO liver, 135 min post-IPGTT, vs vehicle.
[3] abbreviates: DIO mice, 20 minutes post-glucose injection, vs vehicle.

As to `NCCCC[C@@H]1NC(=O)/C=C/C(=O)N[C@H](C(N)=O)CCCCNC(=O)[C@@H](Cc2ccc(C(=O)c3ccccc3)cc2)NC(=O)[C@H](CC2CCCCC2)NC1=O` [Compound 6bK], the “unbound in plasma protein binding assay” value in data set [1] was around 6%. Moreover, in the data set with C57BL/6J mice (80 mg/kg i.p. plus insulin 1.0 U/kg, sacrificed at 75 min), the “adverse observations after high-dose insulin” value was “lethargy and hypothermia”. Moreover, the “plasma level of the hormone injected at the end of the procedure” value with C57BL/6J mice (insulin, amylin or glucagon challenge, lean mice, vs control) is on record as “remained elevated”. The “blood glucose response to amylin challenge” value with C57BL/6J mice (lean mice, 80 mg/kg, amylin s.c. 250 μg/kg, vs vehicle) is on record as “hyperglycemia”. Besides, in the data set with C57BL/6J mice (lean mice, 80 mg/kg, glucagon s.c. 100 μg/kg, vs vehicle), the “blood glucose response to glucagon challenge” value is recorded as “hyperglycemia”. In the data set with C57BL/6J mice (mice, 6bK 80 mg/kg i.p. 30 min before s.c. insulin, vs vehicle), the “blood glucose response in insulin tolerance test” value was “lower hypoglycemia”. For the same compound, the “insulin levels in insulin tolerance test” value in the data set on C57BL/6J mice (mice, 6bK 80 mg/kg, vs vehicle controls, p<0.01) was “higher”. Moreover, in the data set with C57BL/6J mice (non-fasted male C57BL/6J mice, 80 mg/kg i.p., i.p. insulin 1.0 U/kg), the “hypoglycemic response to a high dose of insulin” value is “Increased hypoglycemic response”. Further, the “basal blood glucose or hormone levels” value in the data set with lean mice is reported as “did not significantly alter”. Further, in the data set on DIO mice (setting [2]), the “higher glucose-6-phosphatease (G6Pase) transcript levels” value turned out to be 50% and the “lower phosphoenolpyruvate carboxykinase (PEPCK) transcript levels” value is 30%. Besides, in the data set with DIO mice (DIO mice post-IPGTT, vs control), the “liver G6Pase expression” value is “elevated”. Further, in the data set with DIO mice (setting [3]), the plasma amylin levels entry is “elevated”, the plasma glucagon levels result is reported as “unchanged” and the plasma insulin levels entry is recorded as “elevated”. Moreover, the plasma glucagon levels entry in the data set on DIO mice (DIO mice, 130 min post-injection, hyperglycemic rebound) is given as “above 200 pg/mL”. The “CGRP-induced blood glucose excursions” value in the data set on C57BL/6J lean mice was “augments”.

The values are drawn from patent publication US20160282364A1, “ASSAY FOR INSULIN-DEGRADING ENZYME (IDE) INHIBITORS” (PRESIDENT AND FELLOWS OF HARVARD COLLEGE, priority 2013, published 2016).
